# Source: patent publication US10683287B2, “Heterocyclic derivatives and their use in the treatment of neurological disorders” (Novartis AG, priority 2011, dated 2020)
# System: Cellular Release of Amyloid Peptide 1-40
# Test: Test 4: Inhibition of Cellular Release of Amyloid Peptide 1-40
# Assay type: cell-based, Chinese hamster
# Settings: Cricetulus griseus, 24 h; read-out: Amyloid-β1-40 release IC50
# Procedure: Chinese hamster ovary cells are transfected with the human gene for amyloid precursor protein. The cells are plated at a density of 8000 cells/well into 96-well microtiter plates and cultivated for 24 hours in DMEM cell culture medium containing 10% FCS. The test compound is added to the cells at various concentrations, and the cells are cultivated for 24 hours in the presence of the test compound.
row,Structure (SMILES),IC50 [nM]
1,"C[C@@]1(c2cccc(NC(=O)c3ccc(C#N)cn3)n2)CO[C@@](C)(C(F)(F)F)C(N)=N1 [Example 10, 5-Cyano-pyridine-2-carboxylic acid [6-((3R,6R)-5-amino-3,6-dimethyl-6-trifluoromethyl-3,6-dihydro-2H-[1,4]oxazin-3-yl)-pyridin-2-yl]-amide]",17
2,"Cc1cnc(C(=O)Nc2ccc(F)c([C@]3(C)CO[C@@](C)(C(F)(F)F)C(N)=N3)n2)c(C)n1 [Example 41, 3,5-Dimethyl-pyrazine-2-carboxylic acid [6-((3R,6R)-5-amino-3,6-dimethyl-6-trifluoromethyl-3,6-dihydro-2H-[1,4]oxazin-3-yl)-5-fluoro-pyridin-2-yl]amide]",161
3,"[2H]c1nc(C(=O)Nc2cc(C3(CF)COCC(N)=N3)ccn2)c(C([2H])([2H])[2H])c([2H])c1Cl (stereo not drawn) [Example 13, 5-{2-[(5-Chloro-4,6-dideuterio-3-trideuteromethyl-pyridine-2-carbonyl)-amino]-pyridin-4-yl}-5-fluoromethyl-5,6-dihydro-2H-[1,4]oxazin-3-yl-ammonium Acetate]",550
